# What was measured:
# morningglory [1] = test: Test C pre-/postemergence test; type: in vivo, Ipomoea coccinea; settings: Preemergence
# Method in brief: (§1)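 Test chemicals were formulated with surfactant in a non-phytotoxic solvent and sprayed both on freshly planted seeds (preemergence) and on 1- to 4-leaf plants of 2–18 cm (postemergence). Flooded-paddy pots received compound directly into 3 cm of standing water, maintained for the test.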
# crabgrass = test: Test A pre-/postemergence greenhouse test; type: in vivo, Digitaria sanguinalis; settings: for Crabgrass, Large plant response rating: 0 to 100 scale
# Method in brief: (§2)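 Planting was into mixed loam soil and sand; preemergence treatment followed as a directed soil spray. Concurrently, emerged plants (one- to two-leaf, 2–10 cm) received postemergence applications of identically formulated compound (non-phytotoxic solvent, surfactant). After approximately ten days under greenhouse conditions, injury was judged by eye against untreated plants.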
# corn = test: Test C pre-/postemergence test; type: in vivo, Zea mays
# Method in brief: as §1
# yellow nutsedge = test: Test C pre-/postemergence test; type: in vivo, Cyperus esculentus; settings: Preemergence
# Method in brief: as §1
# soybean = test: Test C pre-/postemergence test; type: in vivo, Glycine max; settings: 62 g ai/ha, Preemergence; scale 0 to 100
# Method in brief: as §1
# cocklebur = test: Test C pre-/postemergence test; type: in vivo, Xanthium strumarium
# Method in brief: as §1
# common ragweed = test: Test C pre-/postemergence test; type: in vivo, Ambrosia elation; settings: Preemergence
# Method in brief: as §1
# giant foxtail [2] = test: Test A pre-/postemergence greenhouse test; type: in vivo, Setaria faberi; settings: for Foxtail, Giant plant response rating: 0 to 100 scale
# Method in brief: as §2
# lambsquarters = test: Test C pre-/postemergence test; type: in vivo, Chenopodium album; settings: Preemergence
# Method in brief: as §1
# giant foxtail [3] = test: Test C pre-/postemergence test; type: in vivo, Setaria faberii; settings: Preemergence
# Method in brief: as §1
# downy brome = test: Test C pre-/postemergence test; type: in vivo, Bromus tectorum
# Method in brief: as §1
# johnsongrass = test: Test C pre-/postemergence test; type: in vivo, Sorghum halepense; settings: Preemergence
# Method in brief: as §1
# wheat = test: Test A pre-/postemergence greenhouse test; type: in vivo, Triticum aestivum; settings: for Wheat plant response rating: 0 to 100 scale
# Method in brief: as §2
# woolly cupgrass = test: Test C pre-/postemergence test; type: in vivo, Eriochloa villosa; settings: Preemergence
# Method in brief: as §1
# umbrella sedge = test: Test C flooded paddy test; type: in vivo, Cyperus difformis; settings: Flood
# Method in brief: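 Flooded 3 cm over soil; compound into paddy water; depth kept constant. Greenhouse 13–15 d.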
# morningglory [4] = test: Test A pre-/postemergence greenhouse test; type: in vivo, Ipomoea spp.; settings: for Morningglory plant response rating: 0 to 100 scale
# Method in brief: as §2
# Goosegrass = test: Test C pre-/postemergence test; type: in vivo, Eleusin indica; settings: Preemergence
# Method in brief: as §1
# [5] = 31 g ai/ha, scale 0 to 100 (0 no effect, 100 complete control)
# [6] = Postemergence, 125 g ai/ha, 0 is no effect, 100 is complete control
# [7] = Postemergence, 500 g ai/ha, 0 is no effect, 100 is complete control
# [8] = Preemergence, 125 g ai/ha, 0 no effect, 100 complete control
# [9] = Preemergence, 500 g ai/ha, 0 to 100 scale where 0 is no effect and 100 is complete control
# [10] = 62 g ai/ha, Preemergence, scale 0 to 100
# [11] = Preemergence, 31 g ai/ha, scale 0 to 100 (0 no effect, 100 complete control)
# [12] = preemergence, 125 g ai/ha, scale 0 (no effect) to 100 (complete control)
compound,measurement,setting,value
Cn1nc(C(F)(F)F)c(C[S+]([O-])c2cccc[n+]2[O-])c1OCC(F)(F)F (racemic) [Compound 28],Morningglory plant response rating,"morningglory [1]; 62 g ai/ha, scale 0 to 100",100
same,"Plant response rating, Morningglory",morningglory [1]; [5],40
same,"Crabgrass, Large plant response rating",crabgrass; [6],80
same,"Crabgrass, Large plant response rating",crabgrass; [7],90
same,"Crabgrass, Large plant response rating",crabgrass; [8],100
same,"Plant response rating, Crabgrass, Large",crabgrass; [9],100
same,Corn plant response rating,corn; [10],85
same,"Plant response rating, Corn",corn; [11],30
same,"Plant response rating (0 to 100), Corn","corn; Preemergence, 250 g ai/ha",100
same,Corn plant response rating,corn; [12],100
same,"Nutsedge, Yellow plant response rating","yellow nutsedge; 62 g ai/ha, scale 0 to 100",80
same,"Plant response rating, Nutsedge, Yellow",yellow nutsedge; [5],80
same,Soybean plant response rating,soybean,95
same,Cocklebur plant response rating,cocklebur; [10],10
same,"Plant response rating, Cocklebur",cocklebur; [11],0
same,"Plant response rating (0 to 100), Cocklebur","cocklebur; Preemergence, 250 g ai/ha",65
same,Cocklebur plant response rating,cocklebur; [12],50
same,Ragweed plant response rating,"common ragweed; 62 g ai/ha, scale 0 to 100",85
same,"Plant response rating, Ragweed",common ragweed; [5],65
same,"Foxtail, Giant plant response rating",giant foxtail [2]; [6],90
same,"Foxtail, Giant plant response rating",giant foxtail [2]; [7],90
same,"Foxtail, Giant plant response rating",giant foxtail [2]; [8],100
same,"Plant response rating, Foxtail, Giant",giant foxtail [2]; [9],100
same,Lambsquarters plant response rating,"lambsquarters; 62 g ai/ha, scale 0 to 100",100
same,"Plant response rating, Lambsquarters",lambsquarters; [5],100
same,"Foxtail, Giant plant response rating","giant foxtail [3]; 62 g ai/ha, scale 0 to 100",100
same,"Plant response rating, Foxtail, Giant",giant foxtail [3]; [5],95
same,"Plant response rating (0 to 100), Foxtail, Giant",giant foxtail [3]; 250 g ai/ha,100
same,"Bromegrass, Downy plant response rating",downy brome; [10],40
same,"Plant response rating, Bromegrass, Downy",downy brome; [11],0
same,"Plant response rating (0 to 100), Bromegrass, Downy","downy brome; Preemergence, 250 g ai/ha",100
same,"Bromegrass, Downy plant response rating",downy brome; [12],50
same,Johnsongrass plant response rating,"johnsongrass; 62 g ai/ha, scale 0 to 100",100
same,"Plant response rating, Johnsongrass",johnsongrass; [5],85
same,"Plant response rating (0 to 100), Johnsongrass",johnsongrass; 250 g ai/ha,100
same,Wheat plant response rating,wheat; [6],60
same,Wheat plant response rating,wheat; [7],70
same,Wheat plant response rating,wheat; [8],70
same,"Plant response rating, Wheat",wheat; [9],100
same,"Cupgrass, Woolly plant response rating","woolly cupgrass; 62 g ai/ha, scale 0 to 100",100
same,"Plant response rating, Cupgrass, Woolly",woolly cupgrass; [5],70
same,"Plant response rating (0 to 100), Cupgrass, Woolly",woolly cupgrass; 250 g ai/ha,100
same,"Plant response rating, Sedge, Umbrella",umbrella sedge; [5],75
same,"Plant response rating, Sedge, Umbrella","umbrella sedge; 62 g ai/ha, scale 0 to 100, 0 no effect, 100 complete control, 13 to 15 days",95
same,"Plant response rating, Sedge, Umbrella","umbrella sedge; 125 g ai/ha, scale 0 to 100, 0 no effect, 100 complete control, 13 to 15 days",100
same,"Plant response rating, Sedge, Umbrella","umbrella sedge; 250 g ai/ha, scale 0 to 100, 0 no effect, 100 complete control, 13 to 15 days",100
same,Morningglory plant response rating,morningglory [4]; [6],60
same,Morningglory plant response rating,morningglory [4]; [7],80
same,Morningglory plant response rating,morningglory [4]; [8],60
same,"Plant response rating, Morningglory",morningglory [4]; [9],90
same,Goosegrass plant response rating,"Goosegrass; 62 g ai/ha, scale 0 to 100",100
same,"Plant response rating, Goosegrass",Goosegrass; [5],100
same,"Plant response rating (0 to 100), Goosegrass",Goosegrass; 250 g ai/ha,100

# — US20100298141A1, “SUBSTITUTED PYRIDINE N-OXIDE HERBICIDES” (E. I. DU PONT DE NEMOURS AND COMPANY, priority 2007, published 2010)
